Measured values: paper PMC7590976, “Detection of Active Granzyme A in NK92 Cells with Fluorescent Activity-Based Probe” (Journal of Medicinal Chemistry, 2020)

Assays:
GrA [1] = molecular target: T1, GrA (Homo sapiens, UniProt P12544); experiment: In-gel detection of recombinant GrA with SK15.5 (SDS-PAGE); assay type: binding; conditions: SK15I 1 μM, 1 h, 37 °C, then SK15.5 500 nM 1 h
T1 construct: made in house; host or cells: Pichia pastoris
T1 sequence (P12544 29-262): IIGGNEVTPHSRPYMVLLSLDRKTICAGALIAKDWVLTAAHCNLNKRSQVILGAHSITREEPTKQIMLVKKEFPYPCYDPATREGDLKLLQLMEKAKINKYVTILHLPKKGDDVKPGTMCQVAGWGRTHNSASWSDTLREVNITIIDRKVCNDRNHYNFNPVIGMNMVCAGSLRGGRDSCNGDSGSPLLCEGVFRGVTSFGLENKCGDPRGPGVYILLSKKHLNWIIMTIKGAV
Method: Next, we tested the utility of our fluorescent probe for the in-gel detection of active GrA in test samples. […] We then ran a simple SDS-PAGE assay to detect labeled GrA (Figure 4A). […] In our hands, the probe bound to the enzyme, as indicated by the fluorescent 35 kDa species, after the minimal incubation time (5 min). […] The optimal concentration was 500 nM (strong signal) (Figure 4B).
(A) Incubation time of SK15.5 with enzyme optimization. […] (D) GrA in-gel detection in NK92 cell lysates. […] The results are representative of at least 2 replicates.
In contrast to the closely related GrB, GrH, GrM, and GrK, GrA is a homodimer formed by stable disulfide-linked subunits.[26] Since the subunits are oriented in opposite directions, the surrounding area may form an exosite.[26]
In the incubation time optimization assay, the enzyme and probe concentrations were constant (250 nM), and the incubation time ranged from 0 to 120 min. […] Enzyme was incubated with probe in a volume of 80 μL, followed by the reduction with 40 μL of 3 × SDS/DTT for 5 min at 95 °C. Samples were centrifuged (3 min, 4500g), and 40 μL of each sample was run on 4–12% Bis-Tris 10-well gels (Invitrogen). The first well was loaded with 2 μL of the protein marker PageRuler Plus Prestained Protein Ladder (Thermo Scientific). Electrophoresis was conducted at 165 V for 37 min at room temperature. […] Total sample volume was 80 μL, to which 40 μL of 3× SDS/DTT was added and boiled for 5 min at 95 °C. Samples were centrifuged (3 min, 4500g), and 40 μL of each sample was run on 4–12% Bis-Tris 10-well gels (Invitrogen). Each form of the enzyme without SK15.5 and probe itself were run as controls. The first well was loaded with 2 μL of protein marker PageRuler Plus Prestained Protein Ladder (Thermo Scientific). Electrophoresis and membrane transfer were conducted in the same manner as above.

MDA-MB-231 cells = conditions: MDA-MB-231, 24 h, MTS at 490 nm, 1 nM to 10 μM tested, duplicate
GrA [2] = molecular target: T1, GrA; experiment: Second-order inhibition rate constant kobs/I toward GrA, pseudo-first-order conditions; assay type: biochemical; conditions: GrA; versus 2000 M^–1 s^–1
Method: We calculated the apparent second-order rate constants for inhibition (kobs(app)/I) of GrA-mediated SK15I under pseudo first-order conditions by serially diluting the new inhibitor in the range of 714–333 nM with a constant optimal substrate (SK15) concentration of 10 μM (Figure 3B).
The second-order inhibition rate constant (kobs/I expressed in M^–1 s^–1) toward GrA was measured under pseudo-first-order kinetic conditions. Ten microliters of substrate (SK15) was mixed with varying inhibitor or probe concentrations and incubated at 37 °C for 15 min. […] Experiments are presented as the average of at least three experiments with standard deviation.

PR3 = experiment: Residual activity assay, PR3; assay type: biochemical; conditions: 3.4 nM PR3 preincubated with 10 μM compound 30 min 37 °C; substrate Ac-Glu(O-Bzl)-Lys(Ac)-Hyp(Bzl)-Nva-ACC
Method: (§1) We wondered whether the selectivity of our SK15-based molecules for GrA would be maintained by substrate structure modifications, such as replacing ACC with a diphenyl phosphonate warhead and changing the N-terminus from acetyl to the cyanine derivative Cy5.
(§2) As a control, enzymes without inhibitor and probe were tested.

hNE = experiment: Residual activity assay, hNE; assay type: biochemical, human; conditions: 3.3 nM hNE preincubated with 10 μM compound 30 min 37 °C; substrate Ac-Arg(NO)2-Glu(Bzl)-Oic-Abu-ACC
Method: as §1, §2

GrM = experiment: Residual activity assay, GrM; assay type: biochemical, human; conditions: 74 nM GrM preincubated with 10 μM compound 30 min 37 °C; substrate Ac-Lys-Val-Pro-Leu-ACC
Method: as §1, §2

GrA [3] = experiment: Residual activity assay, GrA preinhibited with SK15I or SK15.5; assay type: biochemical, human; conditions: substrate SK15; preincubation 30 min, 37 °C
Method: as §1, §2

GrK = molecular target: T2, GrK (Homo sapiens, UniProt P49863); experiment: Residual activity assay, GrK; assay type: biochemical; conditions: 488 nM GrK preincubated with 10 μM compound 30 min 37 °C; 200 μM GrKref
T2 construct: made in house; host or cells: Pichia pastoris
T2 sequence (P49863 27-264): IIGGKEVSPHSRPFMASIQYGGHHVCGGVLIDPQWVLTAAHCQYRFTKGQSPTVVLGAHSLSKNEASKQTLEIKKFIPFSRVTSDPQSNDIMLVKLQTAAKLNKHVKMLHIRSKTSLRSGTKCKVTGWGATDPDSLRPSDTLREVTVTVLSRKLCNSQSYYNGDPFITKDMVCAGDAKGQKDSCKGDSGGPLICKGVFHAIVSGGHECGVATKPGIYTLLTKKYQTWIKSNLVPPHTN
Method: as §1, §2

GrA in NK92 cells = experiment: SK15.5 cell membrane permeability assay / GrA labeling in live NK92 cells; assay type: cell-based, human; conditions: SK15I 10 μM, 1 h, prior to 1 μM SK15.5
Method: (B) SK15.5 probe cell permeability. […] The results represent two biological replicates.
We noticed a strongly labeled species within 30 min, and the intensity increased until 2 h (Figure 5B). […] As an additional control, immunolabeling was performed and confirmed the selective binding of the probe with GrA (for full size blots, please see Figure S3).
As a control, GrA was preinhibited with 10 μM (final concentration) SK15I and incubated for 1 h at 37 °C, and untreated samples were simultaneously incubated. At the end of every time point, the cells were centrifuged, washed twice with DPBS, centrifuged and treated with 100 μL of 1× SDS/DTT solution. Afterward, the samples were sonicated (10 kHz for 10 s) and loaded onto a 4–12% Bis-Tris 10-well gel (Invitrogen). SDS-PAGE was run at 165 V for 37 min, and membrane transfer (10 V, 60 min) was subsequently performed.

GrB = molecular target: T3, GrB (Homo sapiens, UniProt P10144); experiment: Residual activity assay, GrB; assay type: biochemical; conditions: 18 nM GrB preincubated with 10 μM compound 30 min 37 °C; 200 μM GrBref
T3 construct: made in house; host or cells: Pichia pastoris
Method: as §1, §2

T3 sequence (P10144 21-247): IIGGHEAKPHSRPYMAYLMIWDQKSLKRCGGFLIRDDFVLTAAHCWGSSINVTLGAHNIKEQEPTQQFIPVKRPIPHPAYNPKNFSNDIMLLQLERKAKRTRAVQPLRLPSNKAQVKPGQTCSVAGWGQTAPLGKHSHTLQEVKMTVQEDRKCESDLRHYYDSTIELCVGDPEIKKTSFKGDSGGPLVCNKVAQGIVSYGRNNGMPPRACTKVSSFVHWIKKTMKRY

MeOSuc-Tic-Gly-Oic-Arg^P(OPh)2 [SK15I]
effect of preinhibition with inhibitor on SK15.5 probe binding to GrA (in words) (GrA [1]): prevented probe binding
concentration above which cytotoxic (MDA-MB-231 cells): > 10 µM
kobs/I relative to the reference inhibitor (GrA [2]): approximately 85 fold
inhibition of PR3 (PR3): less than 20%
inhibition of hNE (hNE): less than 20%
inhibition of GrM (GrM): less than 20%
residual GrA activity after preinhibition (in words) (GrA [3]): completely blocked
inhibition of GrK (GrK): less than 20%
effect of inhibitor pretreatment on SK15.5 probe binding in live cells (in words) (GrA in NK92 cells): substantial decrease in probe binding
inhibition of GrB (GrB): less than 20%
